Like-named read-outs stand apart in the source and are kept apart here.
Experiments:
Format in all cases: cell-based
[1] = system: CO115 (BRAF V600E-mutated colorectal cancer cell line); assay: MTT assay, encorafenib + binimetinib with retinoid
Description: (§1) RKO cells were seeded on a 96-well plate with the number of cells of 1.5×10^3 cells/well, CO115 cells were seeded on a 96-well plate with the number of cells of 2.5×10^3 cells/well, and HT29 cells and WiDR cells were respectively seeded on 96-well plates with the number of cells of 6×10^3 cells/well. After incubation for about 24 hours until the cell density reached 40% to 60%, the drug was administered. After incubation at 37° C. for 72 hours, the MTT assay was performed using Cell Counting Kit-8 (Dojindo Laboratories, Kumamoto, Japan). To each well was added 10 μl of Cell Counting Kit-8 solution, the plates were placed in a culture vessel at 5% CO2 and 37° C. for 120 minutes to perform a color reaction, and then the absorbance at 450 nm was measured and evaluated with a microplate reader SpectraMax M2e (Molecular Devices, Sunnyvale, CA, USA). Cells administered with 0.1% DMSO were used as a control. The above was performed three or more times as independent experiments.
(§2) In various kinds of colorectal cancer cell lines, the inhibition effect of a BRAF inhibitor (encorafenib) and an MEK inhibitor (binimetinib) for the viability of cells and the enhancement by ATRA were examined. […] The horizontal axis indicates component concentrations of encorafenib and binimetinib in a range of 0 μM to 10 μM, and the vertical axis indicates the cell viability when 0 μM, 1.0 μM, or 10 μM (each bar graph) of ATRA was administered. As shown in the drawing, encorafenib and binimetinib were used in an equal molar concentration.
(§3) As the compounds for acting and on a retinoid receptor, retinol, tamibarotene, bexarotene among the retinoids were used. As the cell lines, the above-described cell lines including RKO, HT29, and CO115 were used. As the BRAF inhibitor and the MEK inhibitor to be used in combination, a component (EB) obtained by mixing encorafenib and binimetinib in equal amounts was used as in Test Example 2.
as §3, with “acting” for “acting and”, “tamibarotene, and” for “tamibarotene,”, “colorectal cancer” for “above-described”, “HT29, CO115, WiDR, COLO205,” for “HT29,”, “LIM2405 described above” for “CO115”

[2] = system: HT29 (BRAF V600E-mutated colorectal cancer cell line); assay: MTT assay, encorafenib + binimetinib with retinoid
Description: as §1, §2, §3
as §3, with “acting” for “acting and”, “tamibarotene, and” for “tamibarotene,”, “colorectal cancer” for “above-described”, “HT29, CO115, WiDR, COLO205,” for “HT29,”, “LIM2405 described above” for “CO115”

[3] = system: RKO (BRAF V600E-mutated colorectal cancer cell line); assay: MTT assay, encorafenib + binimetinib with retinoid
Description: as §1, §2, §3
as §3, with “acting” for “acting and”, “tamibarotene, and” for “tamibarotene,”, “colorectal cancer” for “above-described”, “HT29, CO115, WiDR, COLO205,” for “HT29,”, “LIM2405 described above” for “CO115”

[4] = system: WiDR (BRAF V600E-mutated colorectal cancer cell line); assay: MTT assay, encorafenib + binimetinib with retinoid; settings: Test Example 6; concentration-dependent
Description: as §1, §2
as §3, with “acting” for “acting and”, “tamibarotene, and” for “tamibarotene,”, “colorectal cancer” for “above-described”, “HT29, CO115, WiDR, COLO205,” for “HT29,”, “LIM2405 described above” for “CO115”

COLO205 cell line = assay: MTT assay, encorafenib + binimetinib with retinoid; settings: Test Example 6; concentration-dependent
Description: as §1
as §3, with “acting” for “acting and”, “tamibarotene, and” for “tamibarotene,”, “colorectal cancer” for “above-described”, “HT29, CO115, WiDR, COLO205,” for “HT29,”, “LIM2405 described above” for “CO115”

LIM2405 cell line = assay: MTT assay, encorafenib + binimetinib with retinoid; settings: Test Example 6; concentration-dependent
Description: as §1
as §3, with “acting” for “acting and”, “tamibarotene, and” for “tamibarotene,”, “colorectal cancer” for “above-described”, “HT29, CO115, WiDR, COLO205,” for “HT29,”, “LIM2405 described above” for “CO115”

[5] = system: RKO cells, sensitive strain; assay: Viability of sensitive strain with encorafenib and ATRA; settings: for IC50: Homo sapiens, RKO, Sensitive Strain, read-out: IC50 (50% inhibition concentration)
[6] = system: RKO cells, encorafenib/cetuximab resistant strain; assay: Viability of encorafenib/cetuximab resistant strain with encorafenib and ATRA; settings: for IC50: Homo sapiens, RKO, Resistant Strain, read-out: IC50 (50% inhibition concentration)
Description: Encorafenib/cetuximab resistant strains were constructed, and the inhibitor enhancing effect of ATRA was examined for the resistant strains.
For the construction of the resistant strains, the above-described RKO cells were seeded in 15 mm dishes and a group in which the BRAF inhibitor Encorafenib and an anti-EGFR antibody Cetuximab were administered and a group in which the BRAF inhibitor Encorafenib, the MEK inhibitor Binimetinib, and the anti-EGFR antibody Cetuximab were administered were prepared.
The vertical axis represents the viability (ratio), and the horizontal axis represents the administration amount of encorafenib.

[7] = Test Example 6, concentration-dependent, smaller concentrations than Test Example 3
[8] = Test Example 3, EB 0.01 μM, retinol, tamibarotene or bexarotene 1 μM
[9] = Test Example 3, EB 0.1 μM, retinol 30 μM, tamibarotene 10 μM or bexarotene 10 μM
[10] = Test Example 3, EB 0.1 μM, retinol 30 μM or tamibarotene 30 μM

Row | Structure (SMILES) | cell viability on further adding a retinoid to EB [1, 7] | cell viability on further adding a retinoid to EB [2, 8] | cell viability on further adding a retinoid to EB [2, 7] | cell viability on further adding a retinoid to EB [3, 9] | cell viability on further adding a retinoid to EB [3, 7] | cell viability on further adding a retinoid to EB [4] | cell viability on further adding a retinoid to EB (COLO205 cell line) | cell viability on further adding a retinoid to EB (LIM2405 cell line) | IC50 ([5]; ATRA 0 μM) [µM] | IC50 ([5]; ATRA 1 μM) [µM] | viability (ratio) ([5]; sensitive strain (S), ATRA 1 μM, encorafenib 0 to 10 μM) | viability (ratio) ([5]; sensitive strain, ATRA not administered) | IC50 ([6]; ATRA 0 μM) [µM] | IC50 ([6]; ATRA 1 μM) [µM] | viability (ratio) ([6]; resistant strain (R), ATRA 1 μM) | cell viability on further adding a retinoid to EB [1, 10]
1 | C=C(c1ccc(C(=O)O)cc1)c1cc2c(cc1C)C(C)(C)CCC2(C)C [bexarotene] | greatly decreased | greatly reduced | greatly decreased | greatly reduced | greatly decreased | greatly decreased | greatly decreased | greatly decreased |  |  |  |  |  |  |  | 
2 | COC(=O)N[C@@H](C)CNc1nccc(-c2cn(C(C)C)nc2-c2cc(Cl)cc(NS(C)(=O)=O)c2F)n1 [encorafenib] |  |  |  |  |  |  |  |  | 1.23 | 0.0046 | around 0.1 | around 0.3 | > 10 | 1.58 | around 0.3 | 
3 | CC1=C(/C=C/C(C)=C/C=C/C(C)=C/CO)C(C)(C)CCC1 [retinol] | greatly decreased | greatly reduced | greatly decreased | greatly reduced | greatly decreased | greatly decreased | greatly decreased | greatly decreased |  |  |  |  |  |  |  | greatly reduced
4 | CC1(C)CCC(C)(C)c2cc(NC(=O)c3ccc(C(=O)O)cc3)ccc21 [tamibarotene] | greatly decreased | greatly reduced | greatly decreased | greatly reduced | greatly decreased | greatly decreased | greatly decreased | greatly decreased |  |  |  |  |  |  |  | greatly reduced
